# Measurements: patent publication US7417025B2, “Use of poly-α2,8-sialic acid mimetic peptides to modulate NCAM functions” (Centre National de la Recherche Scientifique, priority 2002, dated 2008)
# Entries after “also recorded” stand apart in the source; their conditions may differ.
# Tests used:
# [1] = system: 30H12 monoclonal antibody; assay: Competitive binding to PSA-NCAM expressing cells (30H12); design: dose or concentration left out as unconfirmed
# Procedure: FIGS. 12B, 12C and 12D: competitive binding to PSA-NCAM expressing cells. B: pre-incubation of p65 (1 mM) or p66 (1 mM) with MenB anti-PSA antibody. C: 30H12 anti-PSA antibody without peptide. […]
# The specificity of p65 and p66 peptides was tested in a competition assay using anti-PSA antibodies and PSA-NCAM expressing cells. […] The binding specificity was examined in greater detail by testing peptide recognition by another anti-PSA mononclonal antibody (MenB). […] Thus, p65 and p66 mimotopes appear to be specific for a unique (idiotypic) determinant.
# [2] = system: Mouse dorsal root ganglion explants (E13.5); assay: Dorsal root ganglion explant culture: neurite outgrowth and fasciculation; assay type: cell-based
# Procedure: E13.5 DRGs were dissected out from mice embryos in HBSS medium and seeded on glass coverslips coated with polylysine or with peptides linked to BSA. Explants were cultured in the presence or the absence of the peptides under soluble form (40 μM) in two ml of neurobasal medium (DMEM/Ham's F12, 3:1 (V/V), GIBCO, buffered with 20 mM Hepes), supplemented as described in Faivre-Sarrailh et al., J. Cell. Sci., 1999, 18, 3015-3027 and Chazal et al., J.Neurosci., 2000, 20, 1446-1457.
# Fixed DRGs (Dorsal Root ganglia) explants and sections were incubated at 4° C. respectively 2 hr with an anti-neurofilament (SMI-31, dilution 1:800, STERNBERGER MONOCLONALS) and overnight with an anti-PSA antibody (dilution 1:200, Rougon et al, J. Cell. Biol., 1986, 103, 2429-2437). Revelation was performed by 1 hr incubation with the corresponding fluorescent-labeled secondary antibody (Goat anti-mouse IgM or IgG conjugated with texas red, IMMUNOTECH)
# After 48 h in culture, explants were examining directly (SVZ) or after overnight fixation with a 4% paraformaldehyde solution in PBS and immunostaining (DRGs). Observation was done using 2, 5×, 5×, 10× and 32× objectives (Axiovert 35M, ZEISS). Images were collected with a video camera (Cool View, PHOTONIC SCIENCE) and analysed using image-processing software (Visiolab1000, BIOCOM). Mean migration distance (calculated on five different experiments, including at least five explants per condition) or mean length of the longest neurite (calculated on two different experiments, including at least eight explants per condition), was the distance in micrometers between the explant edge and the border of the cell migration front. Four measurements were performed for each explant. The significance of the differences between the control and the different experimental conditions was calculated by Student's t test.
# Mouse dorsal root ganglion explants (E13.5) were cultured in the presence of p65 and p66 cyclic mimetic peptides, either in soluble form or coated on the microplates as BSA conjugates. Cells cultured in the absence of peptides or in the presence of reverse peptides (coated or in soluble form) were used as controls.
# [3] = system: spinal cord dorsal hemisection; assay: Functional recovery from spinal cord injury (BBB test, rotarod test); assay type: in vivo, mouse
# Procedure: Male Swiss-CD1 mice (8-10 week-old) were anesthetized with a mixture of ketamine and xylazine. The spinal cord had been exposed by making a midline incision of the skin, and by retracting the paravertebral muscles. A laminectomy was performed at the T7-T8 level and the spinal cord exposed. Using iridectomy scissors, a bilateral dorsal hemisection, transecting left and right dorsal finiculus, the dorsal horns, but sparing most parts of the ventral fimiculus, was performed, resulting in a complete transection of the dorsomedial main Cortico Spinal Tract (CST). For the series of mice receiving the peptides a Surgicoll pledget saturated with 10 μl of either p65 or reverse p65 (10 μM) peptides was applied over the transection site and covered with petroleum jelly to prevent diffusion. All inside muscle layer were sutured using fine thread. Skin was sutured using surgical staples. […]
# Functional evaluation of the animals was performed at day (D) D1, D4, D7, D14, D21, D28, D35, during the first week following the spinal cord lesion and then on a weekly basis until D35, by two different observers blinded to group identity. Locomotor recovery was evaluated using the BBB test (Basso, Beattie and Bresnahan test; Basso et al., Restor. Neurol. Neurosci, 2002, 5, 189-218). […]
# [4] = peptide in coated form (BSA conjugate)
# [5] = peptide in soluble form (40 μM), versus controls
sequence,measurement,setting,value
CSSVTAWTTGCG [p65],Binding of 30H12 monoclonal antibody to PSA-NCAM expressing cells after pre-incubation with peptide,[1],prevented its binding
same,Fasciculation,[2]; [4],opposite effect on fasciculation
same,Neurite outgrowth,[2]; [4],no effect on neurite outgrowth; also recorded: no significant increase
same,Axonal growth,[2]; [5],significant increase in axonal growth
same,Fasciculation of axon bundles,[2]; [5],clear defasciculation of axon bundles
same,Increase of neurite outgrowth compared to the controls,"[2]; peptide in soluble form, mean length of the longest neurite",34%
same,Rotarod test (fine motor coordination),[3]; D35,beneficial effect on recovery
same,BBB score (locomotor recovery),"[3]; versus p65-reverse controls, starting from D14 post-injury, 10 μl of 10 μM peptide at lesion",significantly higher
